Here are results for 2 molecules from US4675427A, “Tetraphosphine-coordinated gold(I) complexes” (Smith Kline Beckman Corporation, priority 1985, dated 1987).

Structures are written as SMILES. Where “and” joins values, the source holds several entries; their conditions need not be identical. Identical values can stand only once.

For data set [1] the following is noted: disclosed by Struck et al. (1966); cited from earlier work.
Data set [2] deals with M5076 reticulum cell sarcoma. Briefly: ip implanted M5076 reticulum cell sarcoma tumor model in mice. Type of data set: in vivo, mouse. As to the method:
Another chemosensitive tumor model is intraperitoneally (ip) implanted M5076 reticulum cell sarocma in mice. In this system B6D2F female mice are inoculated with 0.5 ml of a 10 percent (w:v) brei of M5076 prepared from pooled subcutaneous (sc) tumors excised at about 21 days from C57B1/6 donors. Drugs are administered ip. Daily treatment is begun 24 hours after implantation and is continued for ten days. The treatment regimen for M5076 is more prolonged than for P388 because of the slower growth rate and longer control survival time of the M5076 tumor. A drug is considered active in this tumor model if it produces ≥25% ILS.

In data set [3] the test system is P388 lymphocytic leukemia. Briefly: in vivo ip P388 leukemia mouse model. The source says: P388 lymphocytic leukemia is currently the most widely used animal tumor model for screening for antitumor agents and for detailed evaluation of active compounds. This tumor system is widely accepted as an antitumor agent screening tool because it is sensitive to virtually all of the clinically active antineoplastic agents; quantitative and reproducible; amenable for large-scale screening; and predictive for activity in other animal tumor models.
10^6 P388 leukemia cells are inoculated ip in B6D2F1 mice. Twenty-four hours later, if the tumor inoculum proves to be free of bacterial contamination (as determined by 24 hours incubation in thioglycollate broth), animals are randomized into groups of 6 and housed in shoebox cages. The compound to be evaluated is dissolved in a minimal volume of N,N-dimethylacetamide (DMA). An equal volume of saline is added; if the drug comes out of solution an equal volume of polyethoxylated castor oil is added and then saline qs to a concentration such that the desired dose is delivered in 0.5 ml. The final concentration of DMA and polyethoxylated castor oil is 10 percent. Dilutions for lower doses are made with saline so there is a decreasing proportion of organic solvents in the vehicle with decreasing dosage. This vehicle provides a soluble formulation. […] Animals are monitored daily for mortality and experiments are terminated after 45 days. […]

The subject of data set [4] is B16 melanoma. The data set is described as follows: in vivo ip B16 melanoma assay. More on the design: species or system mouse. The protocol:
In this system, groups of eight B6D2F1 mice are inoculated ip with 0.5 ml of a 10% (w:v) brei of […] prepared from pooled sc tumors excised at 14-21 days from […] donor mice. Daily treatment is begun 24 hours after tumor implantation and is continued daily for ten (10) days. The route of drug administration is ip. The mice are monitored daily for survival for sixty (60) days. Antitumor activity is assessed by prolongation of median survival time. An ILS of ≥25% indicates activity in this tumor model.

For the molecule `c1ccc(P(CCP(c2ccccc2)c2ccccc2)c2ccccc2)cc1` [1,2-bis(diphenylphosphino)ethane], the cytotoxic activity entry in data set [1] is listed as “cytotoxic activity”.

As to `[Cl][Au].c1ccc(P(CCP(CCP(c2ccccc2)c2ccccc2)c2ccccc2)CCP(c2ccccc2)c2ccccc2)cc1` (stereo not shown) [Compound 1, Chloro[1,1,4,7,10,10-hexaphenyl-1,4,7,10-tetraphosphodecane-P^1, P^4, P^7, P^10] gold(I)], the “MTD (maximally tolerated dose)” value in data set [2] (B6D2F female mice, ip qD × 10 regimen) came to 2 mg/kg; in data set [3] (B62DF female mice, ip qDX5 regimen), 3 mg/kg; in data set [4] (B6D2F1 mice, ip qD × 10 regimen) it was 2 mg/kg. Also, the “ILS (MAX), maximum increase in lifespan” value in data set [2] (mice bearing ip M5076 reticulum cell sarcoma, ip daily for ten days) is 38%. In addition, the “ILS (max), maximum increase in lifespan” value in data set [3] (mice bearing ip P388 leukemia, ip Days 1 through 5, figures separated by slashes are from separate experiments) was 40% and 65%. The “ILS, maximum increase in lifespan” value in data set [4] (mice bearing ip B16 melanoma, ip daily for ten days) was 37%.
